In PubChem BioAssay (NCI):
Values joined by “and” are separate entries in the source; they are usually repeats but may differ in a detail not shown here. Equal entries are not always repeated.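 Test compounds were applied to cells in 96-well plates for 48 hours at 5 doses. At the GI50, growth is halved. The concentration for full growth arrest is given as TGI.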

What was measured:
Test in all cases: NCI-60 cell line screen, 48 h
SW-620 colon = system: SW-620 colon
RPMI-8226 leukemia = system: RPMI-8226 leukemia
OVCAR-4 ovarian = system: OVCAR-4 ovarian
OVCAR-3 ovarian = system: OVCAR-3 ovarian
LOX IMVI melanoma = system: LOX IMVI melanoma
OVCAR-5 ovarian = system: OVCAR-5 ovarian
HCT-15 colon = system: HCT-15 colon
A498 renal = system: A498 renal
HOP-92 NSCLC = system: HOP-92 NSCLC
HCC-2998 colon = system: HCC-2998 colon
SF-295 CNS = system: SF-295 CNS
BT-549 breast = system: BT-549 breast
NCI-H226 lung = system: NCI-H226 lung
MALME-3M melanoma = system: MALME-3M melanoma
UACC-62 melanoma = system: UACC-62 melanoma
786-0 renal = system: 786-0 renal
UO-31 renal = system: UO-31 renal
NCI/ADR-RES ovarian = system: NCI/ADR-RES ovarian
HCT-116 colon = system: HCT-116 colon
RXF 393 renal = system: RXF 393 renal
SNB-19 CNS = system: SNB-19 CNS
KM12 colon = system: KM12 colon
SK-OV-3 ovarian = system: SK-OV-3 ovarian
T-47D breast = system: T-47D breast
NCI-H460 lung = system: NCI-H460 lung
PC-3 prostate = system: PC-3 prostate
SF-268 CNS = system: SF-268 CNS
MOLT-4 leukemia = system: MOLT-4 leukemia
CCRF-CEM leukemia = system: CCRF-CEM leukemia
HOP-62 NSCLC = system: HOP-62 NSCLC
U251 CNS = system: U251 CNS
ACHN renal = system: ACHN renal
OVCAR-8 ovarian = system: OVCAR-8 ovarian
COLO 205 colon = system: COLO 205 colon
SF-539 CNS = system: SF-539 CNS
DU-145 prostate = system: DU-145 prostate
HS 578T breast = system: HS 578T breast
HT29 colon = system: HT29 colon
SR leukemia = system: SR leukemia
UACC-257 melanoma = system: UACC-257 melanoma
EKVX NSCLC = system: EKVX NSCLC
SN12C renal = system: SN12C renal
SNB-75 CNS = system: SNB-75 CNS
NCI-H522 lung = system: NCI-H522 lung
K-562 leukemia = system: K-562 leukemia
NCI-H23 lung = system: NCI-H23 lung
SK-MEL-28 melanoma = system: SK-MEL-28 melanoma
M14 melanoma = system: M14 melanoma
TK-10 renal = system: TK-10 renal
CAKI-1 renal = system: CAKI-1 renal
MDA-MB-231 breast = system: MDA-MB-231 breast
SK-MEL-2 melanoma = system: SK-MEL-2 melanoma
SK-MEL-5 melanoma = system: SK-MEL-5 melanoma
HL-60(TB) leukemia = system: HL-60(TB) leukemia
MDA-MB-435 = system: MDA-MB-435
IGROV1 ovarian = system: IGROV1 ovarian
A549 NSCLC = system: A549 NSCLC

CCN(CC)C(=S)SSC(=S)N(CC)CC
GI50 (SW-620 colon): 16.1 µM and 17 µM | TGI (SW-620 colon): 30.4 µM and 32.6 µM | GI50 (RPMI-8226 leukemia): 13.6 µM and 15 µM | TGI (RPMI-8226 leukemia): 30.5 µM and 46.6 µM | GI50 (OVCAR-4 ovarian): 13.5 µM and 13 µM | TGI (OVCAR-4 ovarian): 28.9 µM and 26.4 µM | GI50 (OVCAR-3 ovarian): 15.1 µM and 15.3 µM | TGI (OVCAR-3 ovarian): 32.5 µM and 29.4 µM | GI50 (LOX IMVI melanoma): 14.4 µM and 12.8 µM | TGI (LOX IMVI melanoma): 31.2 µM and 29.9 µM | GI50 (OVCAR-5 ovarian): 35.4 µM and 17.9 µM | TGI (OVCAR-5 ovarian): > 56 µM and 32.6 µM | GI50 (HCT-15 colon): 20.1 µM and 20.9 µM | TGI (HCT-15 colon): > 56.6 µM and 59.8 µM | GI50 (A498 renal): 49.9 µM and 109 µM | TGI (A498 renal): 228 µM | GI50 (HOP-92 NSCLC): 15 µM and 40.4 µM | TGI (HOP-92 NSCLC): 38.4 µM and 133 µM | GI50 (HCC-2998 colon): 28.7 µM and 31.3 µM | TGI (HCC-2998 colon): > 67.9 µM and 124 µM | GI50 (SF-295 CNS): 11.4 µM and 50.8 µM | TGI (SF-295 CNS): > 50.2 µM and 278 µM | GI50 (BT-549 breast): 19.2 µM and 19.9 µM | TGI (BT-549 breast): 38 µM and 44.2 µM | GI50 (NCI-H226 lung): 27.6 µM and 82 µM | TGI (NCI-H226 lung): > 58.7 µM and 307 µM | GI50 (MALME-3M melanoma): 18 µM and 21 µM | TGI (MALME-3M melanoma): 37.5 µM and 50 µM | GI50 (UACC-62 melanoma): 15.2 µM and 18.1 µM | TGI (UACC-62 melanoma): 30.4 µM and 44.5 µM | GI50 (786-0 renal): 24.1 µM and 18.6 µM | TGI (786-0 renal): > 56.2 µM and 39.7 µM | GI50 (UO-31 renal): 15.6 µM and 19.7 µM | TGI (UO-31 renal): 31.9 µM and 49 µM | GI50 (NCI/ADR-RES ovarian): 18.1 µM and 17.6 µM | TGI (NCI/ADR-RES ovarian): 39.9 µM and 37.9 µM | GI50 (HCT-116 colon): 11.4 µM | TGI (HCT-116 colon): 24.9 µM | GI50 (RXF 393 renal): 15.8 µM and 17.3 µM | TGI (RXF 393 renal): 32.4 µM and 32.9 µM | GI50 (SNB-19 CNS): 37.4 µM and 76.4 µM | TGI (SNB-19 CNS): > 75.6 µM and 219 µM | GI50 (KM12 colon): 14.4 µM and 13.7 µM | TGI (KM12 colon): 30.7 µM and 28.2 µM | GI50 (SK-OV-3 ovarian): 49.4 µM and 58.9 µM | TGI (SK-OV-3 ovarian): 173 µM | GI50 (T-47D breast): 15.7 µM and 13 µM | TGI (T-47D breast): 51.3 µM and 39.3 µM | GI50 (NCI-H460 lung): 23.8 µM and 17.4 µM | TGI (NCI-H460 lung): 84.2 µM and 66.4 µM | GI50 (PC-3 prostate): 15.7 µM and 23.2 µM | TGI (PC-3 prostate): 41.2 µM and 72 µM | GI50 (SF-268 CNS): 22 µM and 18.6 µM | TGI (SF-268 CNS): > 58 µM and 42.6 µM | GI50 (MOLT-4 leukemia): 17.7 µM and 16 µM | TGI (MOLT-4 leukemia): 46.6 µM and 48.5 µM | GI50 (CCRF-CEM leukemia): 10.3 µM | TGI (CCRF-CEM leukemia): 27.6 µM | GI50 (HOP-62 NSCLC): 33.9 µM and 33.7 µM | TGI (HOP-62 NSCLC): > 67.9 µM and 112 µM | GI50 (U251 CNS): 15.8 µM and 13.7 µM | TGI (U251 CNS): 31 µM and 30.7 µM | GI50 (ACHN renal): 19 µM and 18 µM | TGI (ACHN renal): 36.9 µM and 34.4 µM | GI50 (OVCAR-8 ovarian): 18.8 µM and 15.8 µM | TGI (OVCAR-8 ovarian): 50.7 µM and 33.5 µM | GI50 (COLO 205 colon): 17 µM and 15.4 µM | TGI (COLO 205 colon): 31.8 µM and 30.1 µM | GI50 (SF-539 CNS): 18.8 µM and 17.9 µM | TGI (SF-539 CNS): 38.6 µM and 37.1 µM | GI50 (DU-145 prostate): 24.5 µM and 31.7 µM | TGI (DU-145 prostate): > 59.8 µM and 133 µM | GI50 (HS 578T breast): 20.9 µM and 105 µM | TGI (HS 578T breast): 64 µM and 501 µM | GI50 (HT29 colon): 16.5 µM and 16.8 µM | TGI (HT29 colon): 31.5 µM and 35.5 µM | GI50 (SR leukemia): 785 nM | TGI (SR leukemia): 34.4 µM | GI50 (UACC-257 melanoma): 35.4 µM and 34.3 µM | TGI (UACC-257 melanoma): > 88.2 µM and 148 µM | GI50 (EKVX NSCLC): 25.7 µM and 25.6 µM | TGI (EKVX NSCLC): 84.6 µM and 73.3 µM | GI50 (SN12C renal): 15 µM and 15.5 µM | TGI (SN12C renal): 29.3 µM and 31.9 µM | GI50 (SNB-75 CNS): 20.7 µM and 18.2 µM | TGI (SNB-75 CNS): > 56.7 µM and 57.3 µM | GI50 (NCI-H522 lung): 11.6 µM and 18.3 µM | TGI (NCI-H522 lung): 27.9 µM and 38.4 µM | GI50 (K-562 leukemia): 25.2 µM and 19.6 µM | TGI (K-562 leukemia): 51.5 µM and 47.3 µM | GI50 (NCI-H23 lung): 23 µM | TGI (NCI-H23 lung): > 76.7 µM and 70.1 µM | GI50 (SK-MEL-28 melanoma): 15.8 µM and 26.8 µM | TGI (SK-MEL-28 melanoma): 35.4 µM and 97.5 µM | GI50 (M14 melanoma): 12.1 µM and 12.6 µM | TGI (M14 melanoma): 28.9 µM and 28.1 µM | GI50 (TK-10 renal): 21.9 µM and 34.2 µM | TGI (TK-10 renal): 43.4 µM and 99.7 µM | GI50 (CAKI-1 renal): 12.6 µM and 20.8 µM | TGI (CAKI-1 renal): 26.3 µM and 77.9 µM | GI50 (MDA-MB-231 breast): 16.1 µM and 16.7 µM | TGI (MDA-MB-231 breast): 32.5 µM and 34.3 µM | GI50 (SK-MEL-2 melanoma): 26.3 µM and 82.2 µM | TGI (SK-MEL-2 melanoma): 71.1 µM and 297 µM | GI50 (SK-MEL-5 melanoma): 16.6 µM and 14.6 µM | TGI (SK-MEL-5 melanoma): 39.9 µM and 33.5 µM | GI50 (HL-60(TB) leukemia): 25.9 µM and 22.4 µM | TGI (HL-60(TB) leukemia): 56.3 µM and 52.5 µM | GI50 (MDA-MB-435): 15.6 µM and 18.7 µM | TGI (MDA-MB-435): 43.5 µM and 53.3 µM | GI50 (IGROV1 ovarian): 142 µM | TGI (IGROV1 ovarian): 543 µM | GI50 (A549 NSCLC): 25 µM and 33 µM | TGI (A549 NSCLC): > 71.9 µM and 146 µM
